Converted amounts (≈) assume the structure as drawn.
Columns and labels:
Type in all cases: cell-based
E. Coli. Brig = assay: In vitro minimal inhibitory concentration, E. Coli. Brig; details: Escherichia coli
Prot Vulg. = assay: In vitro minimal inhibitory concentration, Prot Vulg.
Serr. Mar. IMM 16 = assay: In vitro minimal inhibitory concentration, Serr. Mar. IMM 16
E. Coli. Vogel = assay: In vitro minimal inhibitory concentration, E. Coli. Vogel; details: Escherichia coli
Strep. fec. MGH 2 = assay: In vitro minimal inhibitory concentration, Strep. fec. MGH 2
Staph S 18713 = assay: In vitro minimal inhibitory concentration, Staph S 18713
Pseudomonas UI 18 = assay: In vitro minimal inhibitory concentration, Pseudomonas UI 18; details: UI18
Pseudomonas BRK 12-4-4 = assay: In vitro minimal inhibitory concentration, Pseudomonas BRK 12-4-4; details: BRK1244
Staph UC76 = assay: In vitro minimal inhibitory concentration, Staph UC76
Entero Cloac. IM 11 = assay: In vitro minimal inhibitory concentration, Entero Cloac. IM 11
Pseudomonas #28 = assay: In vitro minimal inhibitory concentration, Pseudomonas #28; details: Pseudomonas #28; in vitro; read-out: Minimal Inhibitory Concentration
Klebs. Pneum. MGH 2 = assay: In vitro minimal inhibitory concentration, Klebs. Pneum. MGH 2

| Structure (SMILES) | MIC (E. Coli. Brig) | MIC (Prot Vulg.) | MIC (Serr. Mar. IMM 16) | MIC (E. Coli. Vogel) | MIC (Strep. fec. MGH 2) | MIC (Staph S 18713) | MIC (Pseudomonas UI 18) | MIC (Pseudomonas BRK 12-4-4) | MIC (Staph UC76) | MIC (Entero Cloac. IM 11) | MIC (Pseudomonas #28) | MIC (Klebs. Pneum. MGH 2) |
| --- | --- | --- | --- | --- | --- | --- | --- | --- | --- | --- | --- | --- |
| CC(=O)N[C@H](CC(N)=O)C(=O)Nc1ccc(-c2ccc(C(=O)N[C@@H](C(=O)NC3C(=O)N4C(C(=O)O)=C(COC(C)=O)CSC34)c3ccccc3)c(=O)[nH]2)cc1 (stereo partly drawn) [Example 13, N-[6-[4-(N-Acetyl-D-aspariginylamino)phenyl]-1,2-dihydro-2-oxonicotinyl]-7-[D-2-amino-2-phenylacetamido]-3-acetoxymethyl-3-cephem-4-carboxylic acid] | 12.5 µg/mL (≈ 16.2 µM) | 25 µg/mL (≈ 32.3 µM) | > 50 µg/mL | 3.1 µg/mL (≈ 4.01 µM) | 25 µg/mL (≈ 32.3 µM) | 6.3 µg/mL (≈ 8.14 µM) | 6.3 µg/mL (≈ 8.14 µM) | 12.5 µg/mL (≈ 16.2 µM) | 0.8 µg/mL (≈ 1.03 µM) | 12.5 µg/mL (≈ 16.2 µM) | 12.5 µg/mL (≈ 16.2 µM) | 6.3 µg/mL (≈ 8.14 µM) |
| CC(=O)N[C@H](CC(N)=O)C(=O)Nc1ccc(-c2ccc(C(=O)N[C@@H](C(=O)NC3C(=O)N4C(C(=O)O)=C(CSc5nnnn5C)CSC34)c3ccccc3)c(=O)[nH]2)cc1 (stereo partly drawn) [Example 23, N-[6-[4-(N-Acetyl-D-asparaginylamino)phenyl]-1,2-dihydro-2-oxonicotinyl]-7-[D-2-amino-2-phenylacetamido]-3-[[(1-methyl-1H-tetrazol-5-yl)thio]methyl]-3-cephem-4-carboxylic acid] | 3.1 µg/mL (≈ 3.74 µM) | 12.5 µg/mL (≈ 15.1 µM) | 25 µg/mL (≈ 30.1 µM) | 0.8 µg/mL (≈ 0.964 µM) | 25 µg/mL (≈ 30.1 µM) | 6.3 µg/mL (≈ 7.59 µM) | 6.3 µg/mL (≈ 7.59 µM) | 6.3 µg/mL (≈ 7.59 µM) | 0.8 µg/mL (≈ 0.964 µM) | 6.3 µg/mL (≈ 7.59 µM) | 12.5 µg/mL (≈ 15.1 µM) | 1.6 µg/mL (≈ 1.93 µM) |
| CC(=O)NC(C)C(=O)Nc1ccc(-c2ccc(C(=O)N[C@@H](C(=O)NC3C(=O)N4C(C(=O)O)=C(CSc5nnc(C)s5)CSC34)c3ccccc3)c(=O)[nH]2)cc1 (mixture of isomers) [Example 22, N-[6-[4-(N-Acetyl-DL-alanylamino)phenyl]-1,2-dihydro-2-oxonicotinyl]-7-[D-2-amino-2-phenylacetamido]-3-[([4-methyl-1,3,4-thiadiazol-2-yl]thio)methyl]-3-cephem-4-carboxylic acid] | 6.3 µg/mL | 12.5 µg/mL | 25 µg/mL | 1.6 µg/mL | 12.5 µg/mL | 6.3 µg/mL | 12.5 µg/mL | 12.5 µg/mL | 0.4 µg/mL | 12.5 µg/mL | 12.5 µg/mL | 3.1 µg/mL |
| CC(=O)OCC1=C(C(=O)O)N2C(=O)C(NC(=O)[C@H](NC(=O)c3ccc(-c4ccc(NC(=O)[C@@H]5CCC(=O)N5C)cc4)[nH]c3=O)c3ccccc3)C2SC1 (stereo partly drawn) [Example 34, N-[6-[4-[N-Methyl-5-oxo-L-prolylamino]phenyl]-1,2-dihydro-2-oxo-nicotinyl]-7-[D-2-amino-2-phenylacetamido]-3-acetoxymethyl-3-cephem-4-carboxylic acid] | 12.5 µg/mL (≈ 16.8 µM) | 12.5 µg/mL (≈ 16.8 µM) | 50 µg/mL (≈ 67.3 µM) | 3.1 µg/mL (≈ 4.17 µM) | 25 µg/mL (≈ 33.7 µM) | 3.1 µg/mL (≈ 4.17 µM) | 6.3 µg/mL (≈ 8.48 µM) | 12.5 µg/mL (≈ 16.8 µM) | 0.4 µg/mL (≈ 0.539 µM) | 12.5 µg/mL (≈ 16.8 µM) | 6.3 µg/mL (≈ 8.48 µM) | 6.3 µg/mL (≈ 8.48 µM) |
| CC(=O)N[C@@H](CCC(N)=O)C(=O)Nc1ccc(-c2ccc(C(=O)N[C@@H](C(=O)NC3C(=O)N4C(C(=O)O)=C(CSc5nnnn5C)CSC34)c3ccccc3)c(=O)[nH]2)cc1 (stereo partly drawn) [Example 9, N-[6-[4-(N-Acetyl-L-glutaminylamino)phenyl]-1,2-dihydro-2-oxonicotinyl]-7-(D-2-amino-2-phenylacetamido]-3-[[(1-methyl-1H-tetrazol-5-yl)thio]methyl]-3-cephem-4-carboxylic acid] | 3.1 µg/mL (≈ 3.67 µM) | 6.3 µg/mL (≈ 7.47 µM) | 12.5 µg/mL (≈ 14.8 µM) | 0.4 µg/mL (≈ 0.474 µM) | 25 µg/mL (≈ 29.6 µM) | 3.1 µg/mL (≈ 3.67 µM) | 6.3 µg/mL (≈ 7.47 µM) | 6.3 µg/mL (≈ 7.47 µM) | 0.4 µg/mL (≈ 0.474 µM) | 1.6 µg/mL (≈ 1.9 µM) | 3.1 µg/mL (≈ 3.67 µM) | 0.8 µg/mL (≈ 0.948 µM) |
| Cn1nnnc1SCC1=C(C(=O)O)N2C(=O)C(NC(=O)[C@H](NC(=O)c3ccc(-c4ccc(NC(=O)[C@@H]5CCC(=O)N5)cc4)[nH]c3=O)c3ccccc3)C2SC1 (stereo partly drawn) [Example 7, N-[6-[4-(L-Pyroglutamylamino)phenyl]-1,2-dihydro-2-oxonicotinyl]-7-[D-2-amino-2-phenylacetamido]-3-[[(1-methyl-1H-tetrazol-5-yl)thio]methyl]-3-cephem-4-carboxylic acid] | 3.1 µg/mL (≈ 3.95 µM) | 12.5 µg/mL (≈ 15.9 µM) | 12.5 µg/mL (≈ 15.9 µM) | 0.8 µg/mL (≈ 1.02 µM) | 12.5 µg/mL (≈ 15.9 µM) | 3.1 µg/mL (≈ 3.95 µM) | 6.3 µg/mL (≈ 8.03 µM) | 6.3 µg/mL (≈ 8.03 µM) | 0.4 µg/mL (≈ 0.51 µM) | 3.1 µg/mL (≈ 3.95 µM) | 6.3 µg/mL (≈ 8.03 µM) | 1.6 µg/mL (≈ 2.04 µM) |
